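Dose response: 5 concentrations. Exposure: 48 h. Format: 96-well plates. Endpoint: linear interpolation; highest concentration if not reached. TGI: total growth inhibition.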
What was measured:
Test in all cases: NCI tumour cell line growth inhibition, 48 h
DLD-1 colon = test system: DLD-1 colon
DMS 114 small cell lung = test system: DMS 114 small cell lung
DMS 273 small cell lung = test system: DMS 273 small cell lung
KM20L2 colon = test system: KM20L2 colon
LXFL 529 NSCLC = test system: LXFL 529 NSCLC
M19-MEL melanoma = test system: M19-MEL melanoma
RXF-631 renal = test system: RXF-631 renal
HOP-18 NSCLC = test system: HOP-18 NSCLC
P388 leukemia = test system: P388 leukemia
P388/ADR leukemia = test system: P388/ADR leukemia
SN12K1 renal = test system: SN12K1 renal

## Cc1cc2c(=O)c3ccc(Cl)cc3[nH]c2c(C(N)=O)c1C
DLD-1 colon
  TGI: > 100 µM
DMS 114 small cell lung
  TGI: > 100 µM
DMS 273 small cell lung
  TGI: > 100 µM
KM20L2 colon
  TGI: > 100 µM
LXFL 529 NSCLC
  TGI: > 100 µM
M19-MEL melanoma
  TGI: > 100 µM
RXF-631 renal
  TGI: > 100 µM

## O=C1c2ccncc2C(=O)c2c(O)ccc(O)c21
DMS 114 small cell lung
  TGI: 13 µM
HOP-18 NSCLC
  TGI: 25.5 µM
KM20L2 colon
  TGI: 8.12 µM
LXFL 529 NSCLC
  TGI: 22 µM
M19-MEL melanoma
  TGI: 9.58 µM

## Cc1ccc(N2C(=O)C3CSCN3C2=O)cc1 (configuration not stated)
DLD-1 colon
  TGI: > 100 µM
DMS 114 small cell lung
  TGI: > 100 µM
HOP-18 NSCLC
  TGI: > 100 µM
M19-MEL melanoma
  TGI: > 100 µM
P388 leukemia
  TGI: > 100 µM
P388/ADR leukemia
  TGI: > 100 µM
SN12K1 renal
  TGI: > 100 µM

## CCC1=C(C[C@H]2NCCc3cc(OC)c(OC)cc32)C[C@H]2c3cc(OC)c(OC)cc3CCN2C1
DLD-1 colon
  TGI: 0.349 µM
DMS 114 small cell lung
  TGI: 0.0598 µM
DMS 273 small cell lung
  TGI: 0.109 µM
HOP-18 NSCLC
  TGI: > 100 µM
KM20L2 colon
  TGI: 0.14 µM
LXFL 529 NSCLC
  TGI: 6.4 µM
M19-MEL melanoma
  TGI: 0.0983 µM
RXF-631 renal
  TGI: 1.43 µM
